# What was measured:
# [1] = Release profile (cumulative fraction released) of a memantine and dihydroergotamine combination, USP II Paddle system, water; format: physicochemical
# From the text: The cumulative fraction is the amount of drug substance released from the formulation matrix to the serum or gut environment (e.g., U.S. Pat. No. 4,839,177) or as measured with a USP II Paddle system using water as the dissolution medium.
# [2] = head of release table, Example 3; cited from earlier work
# [3] = humans; cited from earlier work
SMILES,cum. fraction ([1]; Time 1),cum. fraction ([1]; Time 2),cum. fraction ([1]; Time 4),cum. fraction ([1]; Time 8),cum. fraction ([1]; Time 12),cum. fraction ([1]; Time 16),cum. fraction ([1]; Time 20),cum. fraction ([1]; Time 24),T½ [2],Dose Dependent Tox [3]
"CN1C[C@H](C(=O)N[C@]2(C)O[C@@]3(O)[C@@H]4CCCN4C(=O)[C@H](Cc4ccccc4)N3C2=O)C[C@@H]2c3cccc4[nH]cc(c34)C[C@H]21 [DIHYDROERGOTAMINE, dihydroergotamine]",0.15,0.30,0.45,0.60,0.75,0.90,0.98,0.99,T½ = 15 hrs,
"CC12CC3CC(C)(C1)CC(N)(C3)C2 [Memantine, 1-amino-3,5-dimethyladamantane]",0.15,0.30,0.45,0.60,0.75,0.90,0.98,0.99,,
"CC(N)C12CC3CC(CC(C3)C1)C2 (stereo not drawn) [Rimantadine, 1-(1-aminoethyl)adamantane]",,,,,,,,,,Insomnia
